One assay deals with cortical neurons. Description: Neurite outgrowth in cortical neurons. The format is cell-based, rat. The protocol: Cortical neurons were fixed using 2% paraformaldehyde for 5 min followed by 4% paraformaldehyde for 5 min. Cells were incubated in blocking solution (0.2% Triton-X+1.5% normal goat serum in PBS) followed by primary (anti-neuronal class III β-tubulin (TUJ1) (Covance Innovative Antibodies, Berkeley, Calif.) and secondary antibody (Alexa Fluor 488 goat anti-mouse) (Molecular Probes, Carlsbad, Calif.). Each step was performed at room temperature for 1 hr. Total neurite outgrowth for each condition was analyzed using the Neuronal Profiling Bioapplication on an ArrayScan HCS Reader (Cellomics, Pittsburgh, Pa.).
(§1) Briefly, cortical neuron cultures were prepared from embryonic day 15 (E15) rat embryos (Sprague-Dawley, Charles River Laboratories, Wilmington, Mass.). The embryos were collected, their brains were removed, and the cortices were dissected out in ice-cold phosphate-buffered saline (PBS) without Ca^2+ and Mg^2+. Dissected pieces of cortical tissue were pooled together and transferred to an enzymatic dissociation media containing 20 IU/ml papain in Earle's balanced salt solution (Worthington Biochemical, Freehold, N.J.) and incubated for 30 min at 37° C. After enzymatic dissociation, the papain solution was aspirated and the tissue mechanically triturated with a fire-polished Pasteur pipette in complete media [Neurobasal Medium with B-27 supplement (Gibco, Grand Island, N.Y.), 100 IU/ml penicillin, 100 μg/ml streptomycin, 3.3 μg/ml aphidicolin, 0.5 mM glutamate] containing 2,000 IU/ml DNase and 10-mg/ml ovomucoid protease inhibitor.

Assay [1] addresses T1, FKBP52-rapamycin analogue I-Ca2+ channel β1 subunit complex (Mus musculus, UniProt P30416+Q8R3Z5).
T1 construct: endogenous in cells; host or cells: F11 cell lysate
Description: Co-immunoprecipitation of complex from F11 cell lysate. The format is binding, rat and mouse hybrid. The protocol:
Anti-FKBP52 antibody was added at 1:200 dilution to each aliquot and incubated at 4° C. for 5 h. Protein A beads ([…]) were then added to precipitate the anti-FKBP52-antibody-associated complex. The proteins immunoprecipitated on the beads were washed with PBS buffer, separated on 4-20% SDS-PAGE gel, transferred to PVDF, and immunoblotted with anti-Ca^2+ channel β1 subunit antibody (1:500 dilution) to detect the β1 subunit.

Assay [2] has as its system cultured rat cortical neurons. As to the kind of experiment: Neuronal survival assay (neurofilament ELISA). To be noted: cultured rat cortical neurons. It is filed as cell-based. The protocol:
Cultures were fixed for 30 min with 4% paraformaldehyde at 37° C. Nonspecific binding was blocked by incubating with PBS containing 0.3% Triton X-100 and 5% fetal bovine serum (FBS) for 45 min. Cultures were then incubated overnight at 4° C. with an anti-neurofilament (200 kD) monoclonal antibody (1:1000, clone RT-97, Chemicon, Temecula, Calif.). After washing, a peroxidase-conjugated secondary antibody (1:1000, Vector Labs, Burlingame, Calif.) was applied for 2 h. After three washes, the peroxidase substrate K-BlueMax (Neogen, Lexington, Ky.; Young et al., 1999) was added to the cultures and incubated for 10 min on an orbital shaker. The peroxidase substrate is highly soluble in the K-BlueMax solution. Optical density is then readily measured using a Molecular Devices Spectramax Plus colorimetric plate reader at 650
as §1
A general note: An ELISA detects its analyte on a solid surface through an enzyme-linked reagent.

In assay [3] the test system is Ca2+ channel in F-11 cells. Description: Whole-cell patch clamp recording of Ca2+ currents in F-11 cells. It is filed as cell-based, rat and mouse hybrid. On the procedure:
The whole-cell configuration of the patch-clamp technique was used to record calcium currents from the cells at room temperature using an EPC-9 amplifier (HEKA, Instrutech Corp.) with the acquisition and analysis program Pulse-PulseFit from HEKA (Lambrecht, Germany). Electrodes were fabricated using a P-87 puller (Sutter Instrument). […] The standard bath recording solution is Ca^2+ and Mg^2+ free HBSS (pH 7.4) containing 10 mM HEPES, 10 mM dextrose, and 4 mM BaCl2. Currents were filtered at 3 kHz, and the inward Ca^2+ currents were recorded from cells held at −90 mV with 10 mV depolarizing steps from −80 mV to 60 mV for 50 ms.
On the technique in general: In patch-clamp work, channel activity is measured electrically.

A further assay has as its target His6-tagged FKBP12 (Homo sapiens, UniProt P62942). Description: [3H]-FK506 binding on Ni-chelated FLASH plate. The protocol: Reactions were carried out in triplicate at 25° C. for 30 min. Kd were calculated using methods described by Carreras (Anal. Biochem. 298, 57-61 (2001)).
For another assay, the system named is F-11 cells. As to the kind of experiment: Neurite outgrowth of F-11 cells (neurofilament ELISA). It is filed as cell-based, rat and mouse hybrid. On the procedure: Cells were fixed with 4% paraformaldehyde for 30 min at 37° C. Nonspecific binding was blocked by incubating with PBS containing 0.3% Triton X-100 and 5% fetal bovine serum (FBS) for 45 min. […] After washing, a peroxidase-conjugated anti-mouse secondary antibody (1:1000) was applied for 2 h. After three washes, the peroxidase substrate K-BlueMax was added to the cultures and incubated for 10 min. Optical density was determined at 650 nm.

The target of a further assay is T2, His6-CACNB1:TGG548TAA (Homo sapiens, UniProt Q02641).
T2 construct: His6 (N); made in house
Description: Protein fluorescent quenching. The format is binding. To be noted: compound 1 μM, protein 0-8 μM. The source says:
(§2) The His6-CACNB1: […] were generated from pDEST17-CACNB1 using QuikChange site-directed mutagenesis kit (Stratagene, LaJolla, Calif.). The His6 tagged protein was purified on a Ni-NTA column (Qiagen, Valencia, Calif.). […] J. Biol. Chem. 281, 14961-14970 (2006).

A further assay deals with CACNB1. As to the kind of experiment: Affinity chromatography on Compound 2 matrix (SDS-PAGE). The format is binding, human. As to conditions: protein retained on compound beads vs blank beads.
Excerpt: as §2

For another assay, the system named is Human CD4+ T cells. As to the kind of experiment: Immunosuppression assay: IL-2 stimulated CD4+ T-cell proliferation. The format is cell-based. As to conditions: up to 1 μM. The protocol: Human CD4^+ T cells were purified by negative selection from peripheral blood lymphocytes using RosetteSep as per manufacture's instructions (StemCell Technologies, Inc. Vancouver, British Columbia). Tosyl-activated magnetic microspheres (Dynal, Great Neck, N.Y.) were coated with anti-CD3 Ab (1 μg/10^7 microspheres), and anti-CD28Ab ([…]) as described in Blair et al. J. Immunol., 160:12, 1998. […] Protein-coated microspheres were added to purified CD4+T cells (2×10^6cells/mL, ratio 1 bead: 1 cell) and activated for 72 hours in RPMI, 10% fetal calf serum, 2 mM glutamine media. Cells were harvested, washed, and cultured overnight in fresh media and re-stimulated with IL-2 as described in Bennett et al., J. Immunol. 170:711, 2003. […] Seventy-two hours after culture re-stimulation, plates were pulsed with 1 μCi/well tritiated thymidine and incubated for a 6-16 hour period.

Assay [4] concerns transient mid-cerebral artery occlusion model for ischemic stroke. As to conditions: cited from earlier work.

The source of these data is patent publication US20100196355A1, “Immunophilin Ligands and Methods for Modulating Immunophilin and Calcium Channel Activity” (Wyeth, priority 2007, published 2010).

SMILES strings stand for the structures. Like-named read-outs stand apart in the source and are kept apart here.

T1 sequence (P30416 whole entry): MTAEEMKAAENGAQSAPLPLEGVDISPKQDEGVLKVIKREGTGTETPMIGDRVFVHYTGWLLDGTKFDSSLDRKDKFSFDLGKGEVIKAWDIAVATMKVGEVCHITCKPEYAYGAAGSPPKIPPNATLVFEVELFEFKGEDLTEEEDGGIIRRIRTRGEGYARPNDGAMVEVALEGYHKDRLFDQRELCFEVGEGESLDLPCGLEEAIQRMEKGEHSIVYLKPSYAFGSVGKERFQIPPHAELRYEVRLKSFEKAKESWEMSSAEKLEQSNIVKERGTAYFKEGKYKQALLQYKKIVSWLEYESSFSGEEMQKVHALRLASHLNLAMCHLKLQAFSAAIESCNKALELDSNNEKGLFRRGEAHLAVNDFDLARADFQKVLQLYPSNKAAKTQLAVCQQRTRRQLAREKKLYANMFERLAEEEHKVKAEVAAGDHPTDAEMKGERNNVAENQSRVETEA
T1 sequence (Q8R3Z5 1-479 isoform Q8R3Z5-3): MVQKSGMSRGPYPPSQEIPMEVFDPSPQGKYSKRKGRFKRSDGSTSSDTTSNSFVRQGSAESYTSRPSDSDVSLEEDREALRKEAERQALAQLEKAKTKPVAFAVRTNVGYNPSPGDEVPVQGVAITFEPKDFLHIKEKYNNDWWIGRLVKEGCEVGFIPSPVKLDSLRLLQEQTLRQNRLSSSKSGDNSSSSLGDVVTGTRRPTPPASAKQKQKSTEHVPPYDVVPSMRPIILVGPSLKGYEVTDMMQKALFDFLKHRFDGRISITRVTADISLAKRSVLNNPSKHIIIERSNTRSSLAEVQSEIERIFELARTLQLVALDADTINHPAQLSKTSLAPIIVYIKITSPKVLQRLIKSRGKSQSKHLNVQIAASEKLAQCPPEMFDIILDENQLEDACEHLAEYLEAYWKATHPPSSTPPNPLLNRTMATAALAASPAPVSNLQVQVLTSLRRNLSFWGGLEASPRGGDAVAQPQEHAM
His6-tagged FKBP12, sequence (P62942 whole entry): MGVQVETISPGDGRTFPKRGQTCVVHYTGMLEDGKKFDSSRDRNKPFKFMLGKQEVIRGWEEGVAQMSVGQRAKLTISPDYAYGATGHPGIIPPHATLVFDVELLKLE
T2 sequence (Q02641 1-547 limits assumed): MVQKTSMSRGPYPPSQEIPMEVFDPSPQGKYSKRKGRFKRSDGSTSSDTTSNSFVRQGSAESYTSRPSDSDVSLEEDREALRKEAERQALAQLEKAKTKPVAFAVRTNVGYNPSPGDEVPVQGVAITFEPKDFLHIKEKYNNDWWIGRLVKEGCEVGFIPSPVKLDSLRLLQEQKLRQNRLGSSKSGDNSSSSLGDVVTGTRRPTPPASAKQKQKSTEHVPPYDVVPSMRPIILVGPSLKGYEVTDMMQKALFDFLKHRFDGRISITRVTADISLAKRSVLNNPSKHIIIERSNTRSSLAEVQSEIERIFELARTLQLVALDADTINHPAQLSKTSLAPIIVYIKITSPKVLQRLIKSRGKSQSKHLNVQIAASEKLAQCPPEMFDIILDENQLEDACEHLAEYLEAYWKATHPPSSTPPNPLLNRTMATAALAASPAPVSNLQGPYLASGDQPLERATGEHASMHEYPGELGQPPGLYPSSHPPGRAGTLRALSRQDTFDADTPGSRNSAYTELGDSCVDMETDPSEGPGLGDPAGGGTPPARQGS

The Kd is the concentration at which binding is half-saturated. Regarding `CO[C@H]1C[C@@H]2CC[C@@H](C)[C@@](O)(O2)C(=O)C(=O)N2CCCCC2C(=O)O[C@H]([C@H](C)C[C@@H]2CC[C@@H](O)[C@H](OC)C2)CC(=O)[C@H](C)/C=C(\C)[C@@H](O)[C@@H](OC)C(=O)[C@H](C)C[C@H](C)C2C=C[C@H](/C=C/1C)ON2c1ccccc1` (some centres unmarked) [Rapamycin analogue I, 9,27-dihydroxy-3-{2-[4-hydroxy-3-methoxycyclohexyl]-1-methylethyl}-10,21-dimethoxy-6,8,12,14,20,26-hexamethyl-37-phenyl-4,9,10,12,13,14,15,18,21,22,23,24,25,26,27,32,33,34,34a-nonadecahydro-3H-23,27-epoxy-18,15-(epoxyimino)pyrido[2,1-c][1,4]oxazacyclohentriacontine-1,5,11,28,29(6H, 31H)-pentone], the “neurite outgrowth in cortical neurons” value with cortical neurons is recorded as “promote neurite outgrowth”. The “Ca2+ channel β1 subunit co-immunoprecipitated with FKBP52” value in assay [1] (5 μM) was “large amount”; in [1] (50 μM), “reduced the amount of precipitated β1 subunit”. In addition, the “neuronal survival, neurofilament ELISA” value in assay [2] is on record as “promote neuronal survival”. Also, the “Ca2+ current density” value in assay [3] (5 μM in the bath for 2 hrs) is listed as 3.2+/−0.3 pA/pF. The “decrease of Ca2+ current density vs vehicle” value in [3] (5 μM in the bath for 2 hrs) is reported as 49%. In assay [3] (10 min application), the “whole-cell Ca2+ currents, short bath application” value is recorded as “not affected”. Further, the “reduction of Ca2+ current” value in assay [3] (internal application 10 μM, within 10 min, cells responding to BAY-K5552 (L-type)) is given as 46+/−1.8%; in assay [3] (internal application, cells responding to ωCTX MVIIA (N-type)), “No significant current reduction”. The compound also gave a Kd on His6-tagged FKBP12 of 4.7 ± 0.4 nM. Besides, the “neurite outgrowth in F-11 cells” value with F-11 cells is “promote neurite outgrowth”. In addition, in the assay on F-11 cells (5 μM, 96 hrs), the “neurofilament content, higher than 50 μM or no compound control” value was 4-5 fold. Moreover, the protein fluorescent quenching entry on His6-CACNB1:TGG548TAA is recorded as “linear dose response curve”.
Consider `CO[C@H]1C[C@@H]2CC[C@@H](C)[C@@](O)(O2)C(=O)C(=O)N2CCCCC2C(=O)O[C@H]([C@H](C)C[C@@H]2CC[C@@H](O)[C@H](OC)C2)CC(=O)[C@H](C)/C=C(\C)[C@@H](O)[C@@H](OC)C(=O)[C@H](C)C[C@H](C)C2CC[C@H](/C=C/1C)ON2c1ccccc1` (some centres unmarked) [Rapamycin analogue II, 9,27-dihydroxy-3-{2-[4-hydroxy-3-methoxycyclohexyl]-1-methylethyl}-10,21-dimethoxy-6,8,12,14,20,26-hexamethyl-37-phenyl-4,9,10,12,13,14,15,16,17,18,21,22,23,24,25,26,27,32,33,34,34a-henicosahydro-3H-23,27-epoxy-18,15-(epoxyimino)pyrido[2,1-c][1,4]oxazacyclohentriacontine-1,5,11,28,29(6H, 31H)-pentone], for which the “binding to CACNB1” value in the assay with CACNB1 is “binds”. For the same compound, the “inhibition of IL-2 stimulated CD4+ T-cell proliferation” value with Human CD4+ T cells is recorded as “no detectable inhibition”. For the same compound, the “reduction of infarct volume” value in assay [4] (10 mg/kg) was 24%; in assay [4] (30 mg/kg), 23%.
